Common to all, as to assay type: biochemical
The target of test [1] is T1, PfOPRT (Plasmodium falciparum, UniProt Q8I3Y0).
T1 construct: His6 (thrombin-cleavable) (N, cleaved yes); made in house; host or cells: E. coli BL21-AI
T1 sequence (Q8I3Y0 1-281): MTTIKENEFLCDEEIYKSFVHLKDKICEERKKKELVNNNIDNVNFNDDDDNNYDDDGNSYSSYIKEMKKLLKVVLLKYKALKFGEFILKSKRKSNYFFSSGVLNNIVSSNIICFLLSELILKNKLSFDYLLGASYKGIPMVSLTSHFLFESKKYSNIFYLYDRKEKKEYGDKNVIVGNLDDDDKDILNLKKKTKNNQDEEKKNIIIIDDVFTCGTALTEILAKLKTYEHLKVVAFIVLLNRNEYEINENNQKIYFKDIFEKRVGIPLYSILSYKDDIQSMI
Briefly: PfOPRT kinetic and inhibition assay (OMP with PA or PPi). Here is the method:
(§1) Expression and Purification of PfOPRT and HsOPRT. The pDEST14 vectors encoding the two OPRT genes were transformed into BL21-AI E. coli competent cells and grown in LB+Amp (100 μg mL^−1) at 37° C. to an OD600 of 0.6. Protein expression was induced by adding 0.02% L-arabinose with overnight growth at 37° C. Cells were harvested by centrifugation at 4° C., weighted and resuspended in lysis buffer (20 mM Tris-HCl, 500 mM NaCl and 5 mM Imidazole, pH=7.9, 3 mL/gram cell pellet). Lysozyme (100 μg mL^−1), DNase I (10 μg mL^−1) and protease inhibitor (1 tablet/8 grams of cells) (Roche Applied Science, Indianapolis, Ind.) were added to the solution. Following disruption in a French Press, cell lysate was centrifuged at 30,000 g for […] at 4° C. […] The 6×His-OPRTs were eluted with a gradient of imidazole (20 mM ˜500 mM). The OPRT bands were visualized on SDS-PAGE gels and fractions with high purity were pooled, made to 10% glycerol and 10 mM β-ME (final concentration), concentrated and dialyzed overnight at 4° C. to remove imidazole. His-tags were removed during dialysis by the presence of thrombin (1 unit/0.1 mg). His-tag free OPRTs were purified by Superdex 200 26/60 Gel filtration column, concentrated and stored at −80° C. […] Reactions were monitored by the absorbance increase at 295 nm to give an extinction coefficient of 3.67 mM^−1 cm^−1.

The target in test [2] is T2, HsOPRT (Homo sapiens, UniProt P11172).
T2 construct: This HsUMPase truncation construct only expresses its HsOPRT domain; His6 (thrombin-cleavable) (N, cleaved yes); made in house; host or cells: E. coli BL21-AI
T2 sequence (P11172 1-245): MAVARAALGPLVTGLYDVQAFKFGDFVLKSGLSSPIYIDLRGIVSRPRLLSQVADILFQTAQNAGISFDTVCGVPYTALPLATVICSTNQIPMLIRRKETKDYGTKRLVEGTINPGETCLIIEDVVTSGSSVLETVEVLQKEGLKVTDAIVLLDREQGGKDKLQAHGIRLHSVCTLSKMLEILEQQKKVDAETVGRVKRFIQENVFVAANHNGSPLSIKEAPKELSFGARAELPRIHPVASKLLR
Briefly: HsOPRT kinetic and inhibition assay (OMP with PA or PPi). The procedure:
as §1

Test [3] deals with T1, PfOPRT. Briefly: PfOPRT catalytic activity with p-nitrophenyl β-D-ribose 5′-phosphate as substrate. The note with it: with PA or pyrophosphate; absorbance at 400 nm; conditions could detect 10^−6 of normal activity. The procedure:
(§2) The PfOPRT and HsOPRT catalytic activities with p-nitrophenyl β-D-ribose 5′-phosphate were measured at 25° C. in solutions containing 50 mM Tris-HCl (pH=8.0), 5 mM MgCl2 and varied concentrations of p-nitrophenyl β-D-ribose 5′-phosphate and PA or pyrophosphate. Reaction rates were monitored through the absorbance increase at 400 nm.

Test [4] has as its target T2, HsOPRT. Briefly: HsOPRT catalytic activity with p-nitrophenyl β-D-ribose 5′-phosphate as substrate. The note with it: with PA or pyrophosphate; absorbance at 400 nm. Here is the method:
as §2

Where [5] appears, read: competitive inhibition with respect to OMP, PPi as substrate, 25° C., pH 8.0.

Where two headings read alike, the source gives them in different places.

For the molecule `O=[N+]([O-])c1ccc(O[C@@H]2O[C@H](COP(=O)(O)O)[C@@H](O)[C@H]2O)cc1` [p-nitrophenyl β-D-ribose 5′-phosphate], the values for the Ki in test [1] and in test [2] were 40 nM and 41 nM, respectively. Further, the Km/Ki in test [1] (Km of OMP over Ki of inhibitor) is given as 93; in test [2] (Km of OMP over Ki of inhibitor), 38. The “catalytic activity as substrate (O-glycosidic bond cleavage)” value in test [3] is reported as “did not catalyze the O-glycosidic bond cleavage”; in test [4] it was “Poor catalytic activity”.
With `O=C(O)c1cc(=O)[nH]c(=O)n1[C@@H]1O[C@H](COP(=O)(O)O)[C@@H](O)[C@H]1O` [OMP, orotidine 5′-monophosphate, reference compound], the “reduction of kcat/Km with PA relative to PPi as the nucleophile” value was determined as 110 fold in test [1] (OMP, PA versus PPi) and 8.3 fold in test [2] (OMP, PA versus PPi).
Consider `O=[N+]([O-])c1ccc(O[C@@H]2O[C@H](CO)[C@@H](O)[C@H]2O)cc1` [p-nitrophenyl β-D-ribose, reference compound], for which the Ki worked out at 188 nM in test [1] (setting [5]) and 121 nM in test [2] (setting [5]).

What is called Ki is the dissociation constant of the complex between target and ligand, obtained from inhibition or displacement. A higher Ki goes with lower affinity.

The values above are taken from patent US20110301104A1, “Transition state structure of orotate phosphoribosyl transferases and uses thereof” (priority 2008, published 2011).
